Measurements: paper PMC5192521, “Flavin-Dependent Redox Transfers by the Two-Component Diketocamphane Monooxygenases of Camphor-Grown Pseudomonas putida NCIMB 10007” (Microorganisms, 2016)

Experiments:
[1] = test system: T1, Frp2 (28.5 kDa ferric reductase); test: initial rate of A340 decrease, Lineweaver-Burk; format: biochemical, Pseudomonas putida; conditions: anaerobic, DCPIP as terminal acceptor
T1 construct: native purification from camphor-grown cells; chromosome-coded

[2] = test system: T2, Frp1 (27.0 kDa ferric reductase); test: initial rate of A340 decrease, Lineweaver-Burk; format: biochemical, Pseudomonas putida; conditions: anaerobic, DCPIP as terminal acceptor
T2 construct: native purification from camphor-grown cells; chromosome-coded

[3] = target: T3, 2,5-DKCMO (2,5-diketocamphane monooxygenase; 25DKCMO); test: tryptophan fluorescence quenching titration (ex […] nm, em […] nm); format: binding, Pseudomonas putida; conditions: anaerobic, 60 mM Tris/HCl pH 7.6, 10 µM enzyme; FNR made by photoreduction with EDTA
T3 construct: gene camE25-1; oxygenating subunit, native purification from camphor-grown cells; CAM plasmid-coded; homodimer; nine Trp per monomer

[4] = target: T4, 3,6-DKCMO (3,6-diketocamphane monooxygenase; 36DKCMO) (Pseudomonas putida, UniProt D7UER1); test: as above; format: binding
T4 construct: gene camE36; oxygenating subunit, native purification from camphor-grown cells; CAM plasmid-coded; homodimer; five Trp per monomer
T4 sequence (D7UER1 1-378): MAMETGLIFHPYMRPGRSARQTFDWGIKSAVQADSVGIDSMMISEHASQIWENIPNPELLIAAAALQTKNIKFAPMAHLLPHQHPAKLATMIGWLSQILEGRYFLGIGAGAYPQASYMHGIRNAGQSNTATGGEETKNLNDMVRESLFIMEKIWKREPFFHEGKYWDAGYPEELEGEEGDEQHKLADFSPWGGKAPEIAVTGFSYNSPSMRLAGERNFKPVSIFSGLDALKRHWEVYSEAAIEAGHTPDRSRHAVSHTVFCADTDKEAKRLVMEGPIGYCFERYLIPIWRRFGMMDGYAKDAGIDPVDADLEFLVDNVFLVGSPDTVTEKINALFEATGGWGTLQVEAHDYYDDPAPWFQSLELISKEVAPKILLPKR

[5] = target: T3, 2,5-DKCMO (2,5-diketocamphane monooxygenase; 25DKCMO); test: spectrophotometric titration at […] nm; format: binding, Pseudomonas putida; conditions: aerobic, Tris-HCl pH 7.6, 10 µM FMN
[6] = target: T4, 3,6-DKCMO (3,6-diketocamphane monooxygenase; 36DKCMO); test: spectrophotometric titration at […] nm; format: binding
[7] = substrate: Cc1cc2nc3c(=O)[nH]c(=O)nc-3n(C[C@H](O)[C@H](O)[C@H](O)COP(=O)(O)O)c2cc1C; test: initial rate of A340 decrease, Lineweaver-Burk; format: biochemical, Pseudomonas putida; conditions: anaerobic, 60 mM Tris/HCl pH 7.6, NADH as donor, cytochrome c as terminal acceptor
[8] = substrate: NC(=O)C1=CN([C@@H]2O[C@H](COP(=O)(O)OP(=O)(O)OC[C@H]3O[C@@H](n4cnc5c(N)ncnc54)[C@H](O)[C@@H]3O)[C@@H](O)[C@H]2O)C=CC1; test: initial rate of A340 decrease, Lineweaver-Burk; format: biochemical, Pseudomonas putida; conditions: anaerobic
[9] = 60 mM Tris/HCl pH 7.6, FMN as acceptor
[10] = 60 mM Tris/HCl pH 7.6, NADH as donor
[11] = 60 mM Tris/HCl pH 7.6, 10 µM putidaredoxin plus 30 µM cytochrome c as acceptor

## NC(=O)C1=CN([C@@H]2O[C@H](COP(=O)(O)OP(=O)(O)OC[C@H]3O[C@@H](n4cnc5c(N)ncnc54)[C@H](OP(=O)(O)O)[C@@H]3O)[C@@H](O)[C@H]2O)C=CC1 [NADPH]
[1]; [9]
  Km: 92 µM

## Cc1cc2nc3c(=O)[nH]c(=O)nc-3n(C[C@H](O)[C@H](O)[C@H](O)COP(=O)(O)OP(=O)(O)OC[C@H]3O[C@@H](n4cnc5c(N)ncnc54)[C@H](O)[C@@H]3O)c2cc1C [FAD]
[2]; 60 mM Tris/HCl pH 7.6, NADH as donor, kcat as printed although text calls FAD activity much lower
  Km: 68.8 µM

## Cc1cc2c(cc1C)N(C[C@H](O)[C@H](O)[C@H](O)COP(=O)(O)O)c1[nH]c(=O)[nH]c(=O)c1N2 [FNR]
[3]
  Kd: 0.21 µM
[4]
  Kd: 0.24 µM

## Cc1cc2nc3c(=O)[nH]c(=O)nc-3n(C[C@H](O)[C@H](O)[C@H](O)COP(=O)(O)O)c2cc1C [FMN]
[1]; [10]
  Km: 8.6 µM
[5]
  Kd: 109 µM
[6]
  Kd: 125 µM
[2]; [10]
  Km: 6.9 µM

## NC(=O)C1=CN([C@@H]2O[C@H](COP(=O)(O)OP(=O)(O)OC[C@H]3O[C@@H](n4cnc5c(N)ncnc54)[C@H](O)[C@@H]3O)[C@@H](O)[C@H]2O)C=CC1 [NADH]
[1]; [9]
  Km: 36 µM
[2]; [9]
  Km: 23 µM

B1: Fred (Pseudomonas putida) (protein)
chain: TKVAAEIVRSAIDPQWFRAVLGQYPTGVCAVTAMDPDGKMSGMAVGSFTSVSLNPPLVAFLPDRSSTSWPKIERAGKFCVNVLSDQQLGVCKRFASKDEDKFSGLVYRLSDNGSPIIEGVVAWIDCDLHSVQEAGDHYIVIGSVRELQVESEDSALLFYRGGYGGFAAI
notes: native purification from camphor-grown cells; chromosome-coded; 36 kDa homodimer
[7]
  Km: 4.2 µM
  kcat: 294 s⁻¹
[8]; 60 mM Tris/HCl pH 7.6, FMN as acceptor, cytochrome c as terminal acceptor
  Km: 28 µM

B2: PdR (putidaredoxin reductase) (Pseudomonas putida) (protein)
chain: MNANDNVVIVGTGLAGVEVAFGLRASGWEGNIRLVGDATVIPHHLPPLSKAYLAGKATAESLYLRTPDAYAAQNIQLLGGTQVTAINRDRQQVILSDGRALDYDRLVLATGGRPRPLPVASGAVGKANNFRYLRTLEDAECIRRQLIADNRLVVIGGGYIGLEVAATAIKANMHVTLLDTAARVLERVTAPPVSAFYEHLHREAGVDIRTGTQVCGFEMSTDQQKVTAVLCEDGTRLPADLVIAGIGLIPNCELASAAGLQVDNGIVINEHMQTSDPLIMAVGDCARFHSQLYDRWVRIESVPNALEQARKIAAILCGKVPRDEAAPWFWSDQYEIGLKMVGLSEGYDRIIVRGSLAQPDFSVFYLQGDRVLAVDTVNRPVEFNQSKQIITDRLPVEPNLLGDESVPLKEIIAAAKAELSSA
notes: native purification from camphor-grown cells; FAD flavoprotein; CAM plasmid-coded
[8]; [11]
  Km: 5.9 µM
  kcat: 102 s⁻¹
